Each molecule was assayed against at least one kinase selected from Aurora A, Aurora B, EGF-R, ERBB2, PDGFR, IGF1-R, VEGF-R2, VEGF-R3, EPHB4, Tie2, and SRC (assay: 33PanQinase Activity Assay (protein kinase assay)). Settings: on at least one kinase of the listed panel, or on at least two kinases from at least two different molecular mechanisms of tumor progression; recombinant human kinases, 1 µM ATP.
Format: biochemical
Protocol: The effect of the benzazole derivatives was tested on recombinant, human protein kinases. All protein kinases were expressed in Sf9 insect cells as human recombinant GST-fusion proteins or as His-tagged proteins by means of the baculovirus expression system. Protein kinases were purified by affinity chromatography using either GSH-agarose or Ni-NTH-agarose. The purity and identity of each was checked by SDS-PAGE/silver staining and by western blot analysis with specific antibodies. A proprietary protein kinase assay (^33PanQinase® Activity Assay) was used for measuring the kinase activity. All kinase assays were performed in 96-well FlashPlates™ in a 50 µl reaction volume. The assay for all enzymes contained 60 mM HEPES-NaOH, pH 7.5, 3 mM MgCl2, 3 mM MnCl2, 3 µM Na-orthovanadate, 1.2 mM DTT, 50 µg/ml PEG20000 and 1 µM [γ-^33P]-ATP (approx. 5x10^5 cpm per well). The reaction cocktails were incubated at 30°C for 80 minutes. The reaction was stopped with 50 µl of 2% (v/v) H3PO4, plates were aspirated and washed two times with 200 µl of 0.9% (w/v) NaCl. Incorporation of ^33Pi was determined with a microplate scintillation counter. All assays were performed with a BeckmanCoulter/ Sagian robotic system.

IC50, < 0.5 µM:
COc1cc2ncnc(Nc3ccc4nc(NC(=O)c5ccccc5)oc4c3)c2cc1OC [Example 1, N-[6-(6,7-Dimethoxyquinazolin-4-ylamino)benzoxazol-2-yl]benzamide]
COc1cc2c(Nc3ccc4nc(NC(=O)c5ccccc5)sc4c3)ncnc2cc1OCCCN1CCN(C)CC1 [Example 5, N-(6-{6-Methoxy-7-[3-(4-methylpiperazin-1-yl)propoxy]quinazolin-4-yl-amino}benzothiazol-2-yl)benzamide]
Cc1cc(Nc2ccnc(Nc3ccc4nc(NC(=O)c5ccccc5)sc4c3)n2)n[nH]1 [Example 9, N-{6-[4-(5-Methylpyrazol-3-ylamino)pyrimidin-2-ylamino]benzothiazol-2-yl}benzamide]
COc1cc2ncnc(Nc3ccc4nc(NC(=O)c5ccccc5)sc4c3)c2cc1OC [Example 2, N-[6-(6,7-Dimethoxyquinazolin-4-ylamino)benzothiazol-2-yl]benzamide]
O=C(Nc1nc2cc(Nc3ncnc4nc[nH]c34)ccc2s1)c1ccccc1 [Example 11, N-[5-(Purin-6-ylamino)benzothiazol-2-yl]benzamide]
